In ChEMBL document CHEMBL1158071, “Pterulamides I-VI, linear peptides from a Malaysian Pterula sp” (J Nat Prod, 2006):
Non-standard residues stand in square brackets, D forms with d. Residues, ends and D or L forms follow the SMILES beside them. *: point of attachment. NMeI = CC[C@H](C)[C@H](NC)C(=O)O; NMeV = CN[C@H](C(=O)O)C(C)C; X2 = C[S+]([O-])/C=C/C(=O)*; NMeA = CN[C@@H](C)C(=O)O; X1 = O=C(/C=C/c1ccccc1)*

Test system: P388
Assay: Cytotoxicity against mouse P388 cells
Format: functional, cell-based

Row | SMILES | IC50
1 | CC[C@H](C)[C@@H](C(=O)NC)N(C)C(=O)[C@@H](NC(=O)[C@H](C(C)C)N(C)C(=O)[C@H]([C@@H](C)CC)N(C)C(=O)[C@H](C)N(C)C(=O)/C=C/c1ccccc1)C(C)C [PTERULAMIDE IV] (X1-[NMeA][NMeI][NMeV]V[NMeI]-NHMe) | 1330 nM
2 | CC[C@H](C)[C@@H](C(=O)NC)N(C)C(=O)[C@@H](NC(=O)[C@H](C(C)C)N(C)C(=O)[C@H]([C@@H](C)CC)N(C)C(=O)[C@H](C)N(C)C(=O)/C=C/[S+](C)[O-])C(C)C (some centres not stated) [PTERULAMIDE I] (X2-[NMeA][NMeI][NMeV]V[NMeI]-NHMe) | 790 nM
